Experimental data as given in PMC12461339, “Benzoylselenoureas: A Novel Dual-Action Inhibitor Targeting Fungal Growth and Urease Activity in Cryptococcus neoformans” (ACS Omega, 2025).
≈ marks a conversion by molar mass, not a printed value. Where “and” joins values, the source holds several entries; their conditions need not be identical. Equal entries are not always repeated. Where two headings read alike, the source gives them in different places.

Tests used:
C. neoformans H99 [1] = assay: Broth microdilution antifungal assay (MIC) in RPMI or urea medium; type: cell-based; settings: Cryptococcus neoformans
Protocol: (§1) C. neoformans H99 (or ATCC 208821), a standard strain, was used to evaluate the antifungal activity of BSU1-BSU11 and BTU1-BTU11 compounds using the broth microdilution method. The assay was performed in two different culture media: the standard medium RPMI 1640 buffered with […] (RMPI), and the Christensen broth (urea medium: 1 g/L peptone, 1 g/L dextrose, 5 g/L sodium chloride, 2 g/L potassium phosphate, 20 g/L urea, 12 mg/L phenol red, pH 7.0). The compounds were dissolved in dimethyl sulfoxide (DMSO) and diluted in both media, obtaining final concentrations from 0.03 to 128 mg/L in a 96-well plate and final DMSO concentration below 0.5%, considered nontoxic. For assay, yeasts were distributed in each well to obtain a final inoculum of 0.5–2.5 × 10^3 CFU/mL, and the plate was incubated at 35 °C for 48 h.
(§2) The MIC values were determined in both media and were defined as the lowest concentrations of BSU1-BSU11 and BTU1-BTU11 that inhibited 50% of fungal growth visually compared with untreated yeasts (growth control). In addition, the urease activity was indicated by medium color change from orange to pink due to ammonia production and the MICure was defined as the lowest concentration that inhibited the urease activity by visual inspection in urea medium with no color changes. For both assays, two controls were included: untreated yeast group for observation of fungal growth pattern or intracellular urease activity, and wells containing only medium for assay sterility control.

yeast urease activity = biological target: T1, yeast urease activity (Cryptococcus neoformans, UniProt O13465); assay: Inhibition of yeast urease activity in urea (Christensen) medium, colour change (MICure); type: cell-based
T1 construct: endogenous in cells; host or cells: Cryptococcus neoformans H99 (ATCC 208821) yeasts in Christensen urea broth
T1 sequence (O13465 whole entry): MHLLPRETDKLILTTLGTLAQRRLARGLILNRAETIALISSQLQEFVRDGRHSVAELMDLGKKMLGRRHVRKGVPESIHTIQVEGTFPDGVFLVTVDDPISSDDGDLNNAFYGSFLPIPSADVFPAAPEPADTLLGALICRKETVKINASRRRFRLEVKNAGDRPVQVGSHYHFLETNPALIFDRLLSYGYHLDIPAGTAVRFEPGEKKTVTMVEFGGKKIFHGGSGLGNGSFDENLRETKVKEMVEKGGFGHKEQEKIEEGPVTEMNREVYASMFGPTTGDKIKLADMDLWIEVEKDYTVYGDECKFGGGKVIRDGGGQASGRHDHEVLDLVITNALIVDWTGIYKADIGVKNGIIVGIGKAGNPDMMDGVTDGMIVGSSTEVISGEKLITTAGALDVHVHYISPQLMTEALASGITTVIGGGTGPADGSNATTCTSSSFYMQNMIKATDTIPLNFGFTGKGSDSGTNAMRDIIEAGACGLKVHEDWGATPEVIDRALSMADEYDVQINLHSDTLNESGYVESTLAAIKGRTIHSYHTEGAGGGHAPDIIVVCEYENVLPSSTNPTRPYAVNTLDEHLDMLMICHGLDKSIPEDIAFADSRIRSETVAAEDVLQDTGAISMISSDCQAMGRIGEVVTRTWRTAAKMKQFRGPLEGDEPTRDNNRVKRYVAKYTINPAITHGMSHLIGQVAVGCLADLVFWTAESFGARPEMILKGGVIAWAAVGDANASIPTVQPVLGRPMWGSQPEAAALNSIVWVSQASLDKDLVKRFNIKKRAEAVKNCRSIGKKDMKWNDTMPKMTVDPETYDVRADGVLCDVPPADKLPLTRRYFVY
Protocol: The inhibitory activity against yeast urease was assessed using Christensen’s medium, which contains urea to induce URE1 gene expression. […] Even in the presence of fungal growth, inhibition of urease activity was evidenced by the absence of medium color change, indicating suppressed ammonia production.
as §1, §2

C. neoformans H99 [2] = assay: Minimum fungicidal concentration by subculturing after MIC reading; type: cell-based; settings: Cryptococcus neoformans
Protocol: After MIC readings, the MFC values were determined by subculturing, at 35 °C for 48 h, of all concentrations that inhibited the fungal growth; and then MFC was defined as the lowest concentration of the compound capable of reducing ≥99% viability of the initial fungal inoculum. ,

C. neoformans urease = biological target: T2, C. neoformans urease (Cryptococcus neoformans, UniProt O13465); assay: Urease activity in crude protein extract, indophenol method; type: biochemical; settings: ureIC50, BSU series
T2 construct: endogenous in cells; host or cells: Cryptococcus neoformans H99, lysed by sonication; dialysed and lyophilised soluble fraction (total protein)
T2 sequence (O13465 whole entry): as above
Protocol: C. neoformans H99 yeasts were cultivated in 100 mL of Christensen broth for 72 h at 35 °C by shaking at 200 rpm for the obtention of urease as previously described. Briefly, the yeasts were ruptured using a lysis buffer (40 mM Tris-HCl, 20 mM dithiothreitol, 4% Triton X-100, 1 mM ethylenediaminetetraacetic acid, 2 mM phenylmethylsulfonyl fluoride, protease inhibitor cocktail) and an ultrasonic sonicator. After centrifugation, the soluble fraction was dialyzed in a dialysis membrane submerged in 10 mM sodium phosphate buffer, pH 7.0; the sample was lyophilized and stored at −20 °C. Before the assay, the sample was resuspended in 1 mL of sodium phosphate buffer (10 mM, pH 7.0), and the total protein was quantified by the Bradford method.
The urease activity was determined by the indophenol method. In a 96-well microplate, 10 μL of 100 mM urea was added to 45 μL of total protein and 45 μL of BSU1-BSU11 (concentrations of 0.06–1000 μg/L) in phosphate buffer. The reaction was maintained for 10 min under shaking at 600 rpm, at room temperature. Then, 45 μL of solution A (1% phenol; 0.005% sodium nitroprusside) and 70 μL of solution B (0.5% sodium hydroxide; 0.1% sodium hypochlorite) were immediately added to the wells in the dark and incubated for 5 min at 50 °C under shaking at 600 rpm. Urease activity was quantified by measuring absorbance at 670 nm. The inhibitory concentration capable of inhibiting 50% of urease activity (ureIC50) was determined by nonlinear regression calculation using the GraphPad Prism 5.0 software.

C. neoformans = test system: C. neoformans; parameters: method as in PMID 36960287; settings: against C. neoformans; cited from earlier work
[3] = H99, 48 h, read-out: MIC RPMI, BSU series, 50% inhibition of fungal growth, RPMI medium, 35 °C, 48 h
[4] = H99, 48 h, read-out: MIC urea, BSU series, 50% inhibition of fungal growth, urea medium, 35 °C, 48 h
[5] = H99, Table S1, RPMI medium, C. neoformans H99
[6] = H99, Table S1, urea medium, C. neoformans H99
[7] = BSU series, 100% inhibition of yeast urease activity in urea medium
[8] = Table S1, urea medium, 100% inhibition of yeast urease activity
[9] = H99, BSU series, after assay in RPMI medium, ≥99% reduction of viability
[10] = H99, Table S1, RPMI medium line
[11] = H99, Table S1, urea medium line

Row | Structure (SMILES) | MIC (C. neoformans H99 [1]; [3]) [µg/mL] | MIC (C. neoformans H99 [1]; [4]) [µg/mL] | MIC (C. neoformans H99 [1]; [5]) [µg/mL] | MIC (C. neoformans H99 [1]; [6]) [µg/mL] | MICURE (yeast urease activity; [7]) [mg/L] | MICURE (yeast urease activity; [8]) [mg/L] | MFC (C. neoformans H99 [2]; [9]) [µg/mL] | MFC (C. neoformans H99 [2]; [10]) [µg/mL] | MFC (C. neoformans H99 [2]; [11]) [µg/mL] | IC50 (C. neoformans urease) | MIC (C. neoformans) [µg/mL]
1 | O=C(NC(=[Se])Nc1cccc(Br)c1)c1ccccc1 [BSU9] | 4 (≈ 10.5 µM) | 0.12 (≈ 0.314 µM) | 1 (≈ 2.62 µM) | 0.12 (≈ 0.314 µM) | 0.06 | 0.12 | 4 (≈ 10.5 µM) | 1 (≈ 2.62 µM) | 0.5 (≈ 1.31 µM) | 2.31 nM and 2.3 nM | –
2 | COc1ccccc1NC(=[Se])NC(=O)c1ccccc1 [BSU4] | 8 (≈ 24 µM) | 0.5 (≈ 1.5 µM) | 16 (≈ 48 µM) | 0.5 (≈ 1.5 µM) | 0.5 | 0.25 | 8 (≈ 24 µM) | 16 (≈ 48 µM) | 0.5 (≈ 1.5 µM) | 2.33 nM and 2.34 nM | –
3 | CCCCNC(=S)NC(=O)c1ccccc1 [Compound 4, N-(butylcarbamothioyl)benzamide] | – | – | – | – | – | – | – | – | – | – | 31.25 to 62.5
4 | CC(C)(C)c1ccc(NC(=[Se])NC(=O)c2ccccc2)cc1 [BSU3] | > 128 | > 128 | > 16 | 16 (≈ 44.5 µM) | – | 16 | > 128 | > 16 | > 16 | 0.95 nM and 0.946 nM | –
